Patent US8013153B2, “Substituted pyrimidine kinase inhibitors” (Janssen Pharmaceutica, N.V., priority 2006, dated 2011)

Columns and labels:
RET cytoplasmic domain = target: T1, RET cytoplasmic domain (Homo sapiens, UniProt P07949); assay: RET Kinase Screening Assay; assay type: biochemical
T1 construct: the RET cytoplasmic domain consisting of the last 492 amino acids of the intracellular domain; histidine tag (N); made in house; host or cells: Hi5 insect cells
T1 sequence (P07949 658-1114 limits assumed): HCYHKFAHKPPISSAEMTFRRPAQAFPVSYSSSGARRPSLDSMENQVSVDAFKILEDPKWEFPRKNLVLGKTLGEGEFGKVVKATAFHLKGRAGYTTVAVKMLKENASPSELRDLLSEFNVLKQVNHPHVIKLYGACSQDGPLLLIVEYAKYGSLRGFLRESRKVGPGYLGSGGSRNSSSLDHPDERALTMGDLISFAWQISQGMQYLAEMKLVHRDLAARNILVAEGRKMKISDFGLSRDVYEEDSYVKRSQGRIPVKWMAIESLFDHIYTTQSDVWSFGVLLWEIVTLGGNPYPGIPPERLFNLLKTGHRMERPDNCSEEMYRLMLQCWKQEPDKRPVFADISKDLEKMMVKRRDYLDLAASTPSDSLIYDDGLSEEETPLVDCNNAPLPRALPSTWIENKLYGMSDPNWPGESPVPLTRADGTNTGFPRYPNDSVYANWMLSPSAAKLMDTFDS

[1] = target: T2, rat VEGF-R2 kinase domain (Rattus norvegicus, UniProt O08775); assay: VEGF-R2 Screening Assay; assay type: biochemical; details: > means no observed 50% inhibition at the indicated test concentration; ~ means approximately 50% inhibition at that concentration; read-out: IC50 VEGF-R2
T2 construct: amino acids 786-1343 of the rat VEGF-R2 kinase domain; polyhistidine (N)
T2 sequence (O08775 786-1343): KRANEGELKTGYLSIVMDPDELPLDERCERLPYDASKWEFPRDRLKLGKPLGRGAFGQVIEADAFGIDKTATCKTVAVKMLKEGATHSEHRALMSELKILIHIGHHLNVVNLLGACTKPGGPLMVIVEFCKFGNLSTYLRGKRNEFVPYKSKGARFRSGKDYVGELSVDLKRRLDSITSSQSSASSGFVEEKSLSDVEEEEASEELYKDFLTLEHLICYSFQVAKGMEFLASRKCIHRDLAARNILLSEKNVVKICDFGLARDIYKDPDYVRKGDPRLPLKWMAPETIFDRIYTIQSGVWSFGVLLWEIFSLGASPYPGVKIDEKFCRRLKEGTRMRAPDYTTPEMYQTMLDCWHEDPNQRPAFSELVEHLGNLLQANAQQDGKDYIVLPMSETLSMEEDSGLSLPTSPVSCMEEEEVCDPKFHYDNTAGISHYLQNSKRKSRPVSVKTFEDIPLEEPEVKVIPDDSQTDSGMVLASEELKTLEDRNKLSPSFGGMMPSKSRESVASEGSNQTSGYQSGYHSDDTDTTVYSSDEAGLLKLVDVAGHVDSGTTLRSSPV

A375 malignant melanoma = assay: Inhibition of in vitro cell proliferation (A375); assay type: cell-based, human; details: Homo sapiens, A-375, 14C-thymidine incorporation;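 note: cells plated for 24 h, given compound for 24 h, then labelled with 14C-thymidine for another 24 h, with DMSO-only wells as control and counts read by scintillation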
HCT-116 colon carcinoma = assay: Inhibition of in vitro cell proliferation (HCT116); assay type: cell-based, human; details: Homo sapiens, HCT-116, 14C-thymidine incorporation;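 note: cells exposed to compound for 24 h, then 14C-thymidine added for a further 24 h and its uptake into DNA counted by scintillation, DMSO-only wells as control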
[2] = system: HeLa cervical adenocarcinoma; assay: Inhibition of in vitro cell proliferation (HeLa); assay type: cell-based, human; details: Homo sapiens, 14C-thymidine incorporation;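 note: cells exposed to compound for 24 h, then labelled 24 h with methyl 14C-thymidine, with uptake into DNA counted by scintillation against DMSO-only control wells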
HER2 cytoplasmic domain = target: T3, HER2 cytoplasmic domain (Homo sapiens, UniProt P04626); assay: HER2 Kinase Screening Assay; assay type: biochemical; details: > means no observed 50% inhibition at the indicated test concentration; ~ means approximately 50% inhibition at that concentration
T3 construct: polyhistidine (N)
T3 sequence (P04626 676-1255 limits assumed): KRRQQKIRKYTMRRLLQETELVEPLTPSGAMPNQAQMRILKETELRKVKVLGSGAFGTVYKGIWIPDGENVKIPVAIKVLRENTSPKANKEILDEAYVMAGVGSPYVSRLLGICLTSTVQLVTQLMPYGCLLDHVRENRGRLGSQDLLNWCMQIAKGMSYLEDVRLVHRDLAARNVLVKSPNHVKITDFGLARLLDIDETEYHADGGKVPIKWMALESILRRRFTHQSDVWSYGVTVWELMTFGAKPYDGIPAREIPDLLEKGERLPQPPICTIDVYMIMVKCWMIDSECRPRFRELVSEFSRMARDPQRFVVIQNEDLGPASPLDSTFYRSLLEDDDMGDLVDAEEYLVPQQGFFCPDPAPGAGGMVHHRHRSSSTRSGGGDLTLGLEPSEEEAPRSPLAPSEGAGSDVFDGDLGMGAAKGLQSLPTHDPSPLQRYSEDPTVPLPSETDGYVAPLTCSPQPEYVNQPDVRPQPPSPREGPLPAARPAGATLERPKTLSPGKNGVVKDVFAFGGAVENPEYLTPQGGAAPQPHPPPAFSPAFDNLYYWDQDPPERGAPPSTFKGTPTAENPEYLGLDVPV

CDK1:Cyclin-B = target: T4, CDK1:Cyclin-B (Homo sapiens, UniProt P06493); assay: CDK1 Screening Assay; assay type: biochemical
T4 construct: purchased New England Biolabs, Beverly, Mass; 6020; host or cells: insect cells
T4 sequence (P06493 whole entry): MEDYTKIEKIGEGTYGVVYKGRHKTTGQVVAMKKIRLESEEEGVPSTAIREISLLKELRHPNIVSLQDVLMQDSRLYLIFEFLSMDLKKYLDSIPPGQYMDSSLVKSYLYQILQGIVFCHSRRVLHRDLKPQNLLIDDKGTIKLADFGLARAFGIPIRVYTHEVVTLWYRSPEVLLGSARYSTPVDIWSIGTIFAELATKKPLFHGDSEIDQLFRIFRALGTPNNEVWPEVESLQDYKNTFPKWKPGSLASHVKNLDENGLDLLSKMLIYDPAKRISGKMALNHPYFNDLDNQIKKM
T4 sequence (P14635 whole entry partner): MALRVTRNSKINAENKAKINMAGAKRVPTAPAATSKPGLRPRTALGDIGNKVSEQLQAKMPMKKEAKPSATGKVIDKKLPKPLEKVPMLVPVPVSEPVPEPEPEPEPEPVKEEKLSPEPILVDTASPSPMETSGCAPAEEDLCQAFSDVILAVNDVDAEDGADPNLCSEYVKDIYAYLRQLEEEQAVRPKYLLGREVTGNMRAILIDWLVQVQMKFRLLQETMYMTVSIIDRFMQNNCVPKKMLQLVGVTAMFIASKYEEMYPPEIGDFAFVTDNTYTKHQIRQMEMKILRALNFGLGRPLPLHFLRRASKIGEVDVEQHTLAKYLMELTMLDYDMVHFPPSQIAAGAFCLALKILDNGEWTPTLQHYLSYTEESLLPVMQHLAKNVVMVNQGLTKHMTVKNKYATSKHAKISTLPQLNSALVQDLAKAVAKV

murine Aurora-A = target: T5, murine Aurora-A (Mus musculus, UniProt P97477); assay: Aurora-A Screening Assay; assay type: biochemical
T5 construct: replaced with the full length protein encoding the murine Aurora-A; made in house; host or cells: sf9 insect cells
T5 sequence (P97477 1-395): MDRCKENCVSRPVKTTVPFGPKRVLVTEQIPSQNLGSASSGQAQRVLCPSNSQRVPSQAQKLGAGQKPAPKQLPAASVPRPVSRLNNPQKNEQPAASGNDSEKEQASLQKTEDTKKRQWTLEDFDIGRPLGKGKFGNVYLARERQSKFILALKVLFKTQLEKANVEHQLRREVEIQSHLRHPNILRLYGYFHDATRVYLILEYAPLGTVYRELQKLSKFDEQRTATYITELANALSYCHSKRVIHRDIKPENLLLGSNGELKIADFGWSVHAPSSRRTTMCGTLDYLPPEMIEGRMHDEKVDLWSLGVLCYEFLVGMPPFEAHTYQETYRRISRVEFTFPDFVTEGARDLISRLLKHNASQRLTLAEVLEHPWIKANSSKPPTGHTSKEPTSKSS

| SMILES | IC50 (RET cytoplasmic domain) [µM] | IC50 [1] [µM] | IC50 (A375 malignant melanoma) [µM] | IC50 (HCT-116 colon carcinoma) [µM] | IC50 [2] [µM] | IC50 (HER2 cytoplasmic domain) [µM] | IC50 (CDK1:Cyclin-B) [µM] | IC50 (murine Aurora-A) [µM] |
| --- | --- | --- | --- | --- | --- | --- | --- | --- |
| CNc1ncnc(Oc2ccc3[nH]ccc3c2)c1C=NOC [Cpd 3, 4-(1H-indol-5-yloxy)-6-methylamino-pyrimidine-5-carbaldehyde O-methyl-oxime] | > 100 | > 100 | > 10 | > 10 | > 10 | > 100 | > 100 | > 100 |
| Cc1cc2c(F)c(Oc3ncnc(N)c3C=NOCCCN3CCCC3)ccc2[nH]1 [Cpd 18, 4-amino-6-(4-fluoro-2-methyl-1H-indol-5-yloxy)-pyrimidine-5-carbaldehyde O-(3-pyrrolidin-1-yl-propyl)-oxime] | 8.11 | 0.065 | 2.61 | 4.5 | 4.18 | 1.49 | > 100 | > 10 |
| Cc1cc2c(F)c(Oc3ncnc(N)c3C=NOCCCN3CCN(S(C)(=O)=O)CC3)ccc2[nH]1 [Cpd 22, 4-amino-6-(4-fluoro-2-methyl-1H-indol-5-yloxy)-pyrimidine-5-carbaldehyde O-[3-(4-methanesulfonyl-piperazin-1-yl)-propyl]-oxime] | 2.77 | 0.045 | > 10 | > 10 | > 10 | 1.41 | > 100 | > 100 |
| Cc1cc2c(F)c(Oc3ncnc(N)c3/C=N/O)ccc2[nH]1 [Cpd 27, 4-amino-6-(4-fluoro-2-methyl-1H-indol-5-yloxy)-pyrimidine-5-carbaldehyde oxime] | > 10 | 0.033 | 0.492 | 1.14 | 0.472 | ~10 | > 100 | ~10 |
| Cc1cc2c(F)c(Oc3ncnc(N)c3C=NOCC3CCCCC3)ccc2[nH]1 [Cpd 35, 4-amino-6-(4-fluoro-2-methyl-1H-indol-5-yloxy)-pyrimidine-5-carbaldehyde O-cyclohexylmethyl-oxime] | > 100 |  | 4.92 | 16.1 | 22.7 | > 100 | > 100 | > 100 |
| Cc1cc2c(F)c(Oc3ncnc(N)c3C=NOCc3ccccc3)ccc2[nH]1 [Cpd 36, 4-amino-6-(4-fluoro-2-methyl-1H-indol-5-yloxy)-pyrimidine-5-carbaldehyde O-benzyl-oxime] | > 100 |  | 0.062 | 0.311 | 0.266 | > 100 | > 100 | > 100 |
| CNC(=O)n1c(C)cc2cc(Oc3ncnc(N)c3C=NOC)ccc21 [Cpd 49, 5-[6-amino-5-(methoxyimino-methyl)-pyrimidin-4-yloxy]-2-methyl-indole-1-carboxylic acid methylamide] | ~10 | 0.001 | 1.39 | 3.14 | 2.98 | ~100 | > 100 | > 100 |
| CNC(=O)Nc1ccc(Oc2ncnc(N)c2C=NOC)cc1Cl [Cpd 51, 1-{4-[6-amino-5-(methoxyimino-methyl)-pyrimidin-4-yloxy]-2-chloro-phenyl}-3-methyl-urea] | ~1 | 0.025 | 4.09 | 4.21 | 3.75 | > 100 | > 100 | > 100 |
| CCNC(=O)Nc1ccc(Oc2ncnc(N)c2C=NOC)cc1C [Cpd 66, 1-{4-[6-amino-5-(methoxyimino-methyl)-pyrimidin-4-yloxy]-2-methyl-phenyl}-3-ethyl-urea] | > 10 | 0.18 | > 100 | > 100 | > 100 | > 100 | > 100 | > 100 |
| CNC(=O)Nc1ccc(Oc2ncnc(N)c2C=NOC)cc1 [Cpd 68, 1-{4-[6-amino-5-(methoxyimino-methyl)-pyrimidin-4-yloxy]-phenyl}-3-methyl-urea] | > 10 | 0.233 | > 10 | > 10 | > 10 | > 100 | > 100 | > 10 |
| CCNC(=O)Nc1ccc(Oc2ncnc(N)c2C=NOC)cc1 [Cpd 69, 1-{4-[6-amino-5-(methoxyimino-methyl)-pyrimidin-4-yloxy]-phenyl}-3-ethyl-urea] | > 10 | 0.142 | > 10 | > 10 | > 10 | > 100 | > 100 | > 10 |

The next lines start with the values.

| IC50 (RET cytoplasmic domain) [µM] | IC50 [1] [µM] | IC50 (A375 malignant melanoma) [µM] | IC50 (HCT-116 colon carcinoma) [µM] | IC50 [2] [µM] | IC50 (HER2 cytoplasmic domain) [µM] | IC50 (CDK1:Cyclin-B) [µM] | IC50 (murine Aurora-A) [µM] | SMILES |
| --- | --- | --- | --- | --- | --- | --- | --- | --- |
| ~100 | 4.77 | > 10 | 38.3 | > 10 | > 10 | > 100 | > 100 | CON=Cc1c(NOC)ncnc1Oc1ccc2[nH]ccc2c1 [Cpd 4, 4-(1H-indol-5-yloxy)-6-methoxyamino-pyrimidine-5-carbaldehyde O-methyl-oxime] |
| 3.58 | ~0.1 | 3.82 | 9.24 | 4.91 | 1.23 | > 100 | > 100 | Cc1cc2c(F)c(Oc3ncnc(N)c3C=NOCCCN3CCOCC3)ccc2[nH]1 [Cpd 19, 4-amino-6-(4-fluoro-2-methyl-1H-indol-5-yloxy)-pyrimidine-5-carbaldehyde O-(3-morpholin-4-yl-propyl)-oxime] |
| 8.32 | 0.082 | > 10 | > 10 | > 10 | 1.78 | > 100 | > 100 | CC(=O)N1CCN(CCCON=Cc2c(N)ncnc2Oc2ccc3[nH]c(C)cc3c2F)CC1 [Cpd 23, 4-amino-6-(4-fluoro-2-methyl-1H-indol-5-yloxy)-pyrimidine-5-carbaldehyde O-[3-(4-acetyl-piperazin-1-yl)-propyl]-oxime] |
| > 100 |  | 0.233 | 0.387 | 0.308 | ~10 | > 100 | > 100 | COCCON=Cc1c(N)ncnc1Oc1ccc2[nH]c(C)cc2c1F [Cpd 28, 4-amino-6-(4-fluoro-2-methyl-1H-indol-5-yloxy)-pyrimidine-5-carbaldehyde O-(2-methoxy-ethyl)-oxime] |
| > 10 |  | 0.336 | 0.452 | 0.362 | 4.63 | > 100 | > 10 | Cc1cc2c(F)c(Oc3ncnc(N)c3C=NOCCCO)ccc2[nH]1 [Cpd 29, 4-amino-6-(4-fluoro-2-methyl-1H-indol-5-yloxy)-pyrimidine-5-carbaldehyde O-(3-hydroxy-propyl)-oxime] |
| ~10 |  | 0.028 | 0.03 | 0.04 | > 100 | > 100 | > 100 | CCCON=Cc1c(N)ncnc1Oc1ccc2[nH]c(C)cc2c1F [Cpd 34, 4-amino-6-(4-fluoro-2-methyl-1H-indol-5-yloxy)-pyrimidine-5-carbaldehyde O-propyl-oxime] |
| > 100 |  | 0.446 | 3 | 0.607 | > 100 | > 100 | > 100 | CCCCON=Cc1c(N)ncnc1Oc1ccc2[nH]c(C)cc2c1F [Cpd 37, 4-amino-6-(4-fluoro-2-methyl-1H-indol-5-yloxy)-pyrimidine-5-carbaldehyde O-butyl-oxime] |
| > 10 | 0.0424 | > 1 | > 10 | > 10 | > 10 | > 100 |  | CON=Cc1c(N)ncnc1Oc1ccc2c(c1)cc(C)n2C(=O)NCCN(C)C [Cpd 41, 5-[6-amino-5-(methoxyimino-methyl)-pyrimidin-4-yloxy]-2-methyl-indole-1-carboxylic acid (2-dimethylamino-ethyl)-amide] |
